Active and inactive are the calls of the source. The rule behind the calls is not given here.
Columns and labels:
Pseudomonas aeruginosa [1] = test: Downregulation of filA expression in Pseudomonas aeruginosa PAO1 at 20 uM incubated for 24 hrs by RNA sequencing analysis; format: functional
[2] = Toxicity in Balb/c mouse wound infection model infected with Pseudomonas aeruginosa PAO1 assessed as body weight change at 50 uM,TOP for 3 days in Ciprofloxacin; details: in vivo, topical_or_ocular, 72 h, time 3 day
A549 = test: Cytotoxicity against human A549 cells assessed as reduction in cell viability upto 50 uM incubated for 24 hrs by MTT assay; format: toxicity, cell-based; details: a549, 24 h
Pseudomonas aeruginosa [3] = test: Downregulation of mexE expression in Pseudomonas aeruginosa PAO1 at 20 uM incubated for 24 hrs by RNA sequencing analysis; format: functional
Pseudomonas aeruginosa [4] = test: Upregulation of pvdJ expression in Pseudomonas aeruginosa PAO1 at 20 uM incubated for 24 hrs by RNA sequencing analysis; format: functional
[5] = Metal chelating activity assessed as Fe3+-compound complex formation assessed as pFe(III) value by fluorescence method
Pseudomonas aeruginosa [6] = test: Synergistic antibacterial activity against Pseudomonas aeruginosa PAO1 infected in Balb/c mouse wound infection model assessed as reduction in bacterial infection at 50 uM,TOP QD for 3 days in presence of Ciprofloxacin by CFU assay; format: functional; set-up: scale not given: the % may be the effect or the level left; details: time 3 day
[7] = Inhibition of quorum sensing system in Pseudomonas aeruginosa PAO1-rhlA-gfp assessed as inhibition of GFP fluorescence expression at 1.25 to 20 uM and measured for 12 hrs at 15 mins interval by fluorescence assay; details: dose 1.25-20 µM
Pseudomonas aeruginosa [8] = test: Antibiofilm activity against Pseudomonas aeruginosa PAO1 in ABTGC medium assessed as inhibition of biofilm formation incubated for 24 hrs by crystal violet staining based absorbance assay; format: functional, organism-based; details: PAO1, 24 h
Pseudomonas aeruginosa [9] = test: Antibiofilm activity against in Pseudomonas aeruginosa PAO1 assessed as pilus formation at 5 to 40 uM incubated for 16 hrs by SEM analysis; format: functional, organism-based; details: dose 5-40 µM
Pseudomonas aeruginosa [10] = test: Downregulation of phyllo expression in Pseudomonas aeruginosa PAO1 at 20 uM incubated for 24 hrs by RNA sequencing analysis; format: functional
[11] = Toxicity in Balb/c mouse wound infection model infected with Pseudomonas aeruginosa PAO1 assessed as morphological changes in lung at 50 uM,TOP for 3 days in Ciprofloxacin by H and E staining based analysis; format: tissue-based; details: in vivo, topical_or_ocular, 72 h, time 3 day
Pseudomonas aeruginosa [12] = test: Antibiofilm activity against Pseudomonas aeruginosa PAO1 pvds-defective mutant assessed as inhibition of biofilm formation at 1.25 to 20 uM incubated for 24 hrs by crystal violet staining based absorbance assay; format: functional, organism-based; details: dose 1.25-20 µM
Pseudomonas aeruginosa [13] = test: Downregulation of pilT expression in Pseudomonas aeruginosa PAO1 at 20 uM incubated for 24 hrs by RNA sequencing analysis; format: functional
Pseudomonas aeruginosa [14] = test: Downregulation of rhlA expression in Pseudomonas aeruginosa PAO1 at 20 uM incubated for 24 hrs by RNA sequencing analysis; format: functional
[15] = Toxicity in Balb/c mouse wound infection model infected with Pseudomonas aeruginosa PAO1 assessed as morphological changes in kidney at 50 uM,TOP for 3 days in Tobramycin by H and E staining based analysis; format: tissue-based; details: in vivo, topical_or_ocular, 72 h, time 3 day
[16] = target: T1, HTH-type quorum-sensing regulator RhlR (Pseudomonas aeruginosa (strain ATCC 15692 / PAO1 / 1C / PRS 101 / LMG12228)) (UniProt P54292); test: Inhibition of RhlR-mediated quorum sensing system in Pseudomonas aeruginosa PAO1 assessed as inhibition of pyocyanin production at 1.25 to 20 uM incubated for 24 hrs by absorbance based assay; details: dose 1.25-20 µM
T1 sequence (whole entry): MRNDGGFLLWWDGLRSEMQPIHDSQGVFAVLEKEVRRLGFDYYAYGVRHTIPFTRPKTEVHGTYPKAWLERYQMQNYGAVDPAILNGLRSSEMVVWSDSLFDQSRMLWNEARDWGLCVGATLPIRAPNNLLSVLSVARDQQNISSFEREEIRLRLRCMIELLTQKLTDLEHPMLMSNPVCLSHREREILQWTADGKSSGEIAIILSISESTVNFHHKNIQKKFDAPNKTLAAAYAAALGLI

Pseudomonas aeruginosa [17] = test: Synergistic antibacterial activity against Pseudomonas aeruginosa PAO1 infected in Balb/c mouse wound infection model assessed as healing degree of wound at 50 uM,TOP QD for 3 days and measured after 9 days in presence of Tobramycin; format: functional, organism-based; details: time 3.0 day
Pseudomonas aeruginosa [18] = test: Downregulation of pilD expression in Pseudomonas aeruginosa PAO1 at 20 uM incubated for 24 hrs by RNA sequencing analysis; format: functional
Pseudomonas aeruginosa [19] = test: Downregulation of pqsA expression in Pseudomonas aeruginosa PAO1 at 20 uM incubated for 24 hrs by RNA sequencing analysis; format: functional
Pseudomonas aeruginosa [20] = test: Upregulation of fpvA expression in Pseudomonas aeruginosa PAO1 at 20 uM incubated for 24 hrs by RNA sequencing analysis; format: functional
Pseudomonas aeruginosa [21] = test: Inhibition of iron homeostasis in Pseudomonas aeruginosa PAO1 in ABTGC medium assessed as increase in iron-free pyoverdine production at 1.25 to 20 uM in presence of FeCl3 by fluorescence based microplate reader analysis; format: functional, organism-based; details: dose 1.25-20 µM
[22] = target: T2, Transcriptional activator protein LasR (Pseudomonas aeruginosa (strain ATCC 15692 / PAO1 / 1C / PRS 101 / LMG12228)) (UniProt P25084); test: Inhibition of LasR-mediated quorum sensing system in Pseudomonas aeruginosa PAO1 assessed as inhibition of elastase production at 1.25 to 20 uM incubated for 24 hrs using BODIPY-FL-labeled DQ elastin conjugate as substrate by fluorometric method; details: dose 1.25-20 µM
T2 sequence (whole entry): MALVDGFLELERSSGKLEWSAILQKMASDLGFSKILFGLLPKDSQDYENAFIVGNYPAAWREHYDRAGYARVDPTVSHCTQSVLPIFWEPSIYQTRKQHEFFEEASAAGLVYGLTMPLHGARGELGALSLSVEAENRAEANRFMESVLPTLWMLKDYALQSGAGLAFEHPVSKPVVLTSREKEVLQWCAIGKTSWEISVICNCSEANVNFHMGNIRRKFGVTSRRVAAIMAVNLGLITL

[23] = Inhibition of quorum sensing system in Pseudomonas aeruginosa PAO1-pqsA-gfp assessed as inhibition of GFP fluorescence expression at 1.25 to 20 uM and measured for 12 hrs at 15 mins interval by fluorescence assay; details: dose 1.25-20 µM
[24] = Inhibition of quorum sensing system in Pseudomonas aeruginosa PAO1-lasB-gfp assessed as inhibition of GFP fluorescence expression at 1.25 to 20 uM and measured for 12 hrs at 15 mins interval by fluorescence assay; details: dose 1.25-20 µM
[25] = Inhibition of quorum sensing system in Pseudomonas aeruginosa PAO1-gfp assessed as inhibition of GFP fluorescence expression at 1.25 to 20 uM and measured for 12 hrs at 15 mins interval by fluorescence assay; details: dose 1.25-20 µM
Pseudomonas aeruginosa [26] = test: Upregulation of pchB expression in Pseudomonas aeruginosa PAO1 at 20 uM incubated for 24 hrs by RNA sequencing analysis; format: functional
[27] = Toxicity in Balb/c mouse wound infection model infected with Pseudomonas aeruginosa PAO1 assessed as morphological changes in lung at 50 uM,TOP for 3 days in Tobramycin by H and E staining based analysis; format: tissue-based; details: in vivo, topical_or_ocular, 72 h, time 3 day
Pseudomonas aeruginosa [28] = test: Upregulation of pvdE expression in Pseudomonas aeruginosa PAO1 at 20 uM incubated for 24 hrs by RNA sequencing analysis; format: functional
Pseudomonas aeruginosa [29] = test: Downregulation of mexA expression in Pseudomonas aeruginosa PAO1 at 20 uM incubated for 24 hrs by RNA sequencing analysis; format: functional

Cc1ccc2oc(=O)cc(OCCCCCCC(=O)NO)c2c1
Activity (Pseudomonas aeruginosa [1]): Active
Activity [2]: Non-Toxic
Activity (A549): Non-Toxic
Activity (Pseudomonas aeruginosa [3]): Active
Activity (Pseudomonas aeruginosa [4]): Active
pFe(III) [5]: 20.1
Activity (Pseudomonas aeruginosa [6]): 100%
inhibition [7]: inactive
IC50 (Pseudomonas aeruginosa [8]): 3.66 µM
Activity (Pseudomonas aeruginosa [9]): Dose-Dependent Effect
Activity (Pseudomonas aeruginosa [10]): Active
Activity [11]: Non-Toxic
inhibition (Pseudomonas aeruginosa [12]): inactive
Activity (Pseudomonas aeruginosa [13]): Active
Activity (Pseudomonas aeruginosa [14]): Active
Activity [15]: Non-Toxic
inhibition [16]: inactive
Activity (Pseudomonas aeruginosa [17]): Active
Activity (Pseudomonas aeruginosa [18]): Active
Activity (Pseudomonas aeruginosa [19]): Active
Activity (Pseudomonas aeruginosa [20]): Active
inhibition (Pseudomonas aeruginosa [21]): Active
inhibition [22]: Dose-Dependent Effect
inhibition [23]: Dose-Dependent Effect
inhibition [24]: Dose-Dependent Effect
inhibition [25]: inactive
Activity (Pseudomonas aeruginosa [26]): Active
Activity [27]: Non-Toxic
Activity (Pseudomonas aeruginosa [28]): Active
Activity (Pseudomonas aeruginosa [29]): Active

Source: ChEMBL document CHEMBL5370649, “Novel Coumarin Derivatives Inhibit the Quorum Sensing System and Iron Homeostasis as Antibacterial Synergists against Pseudomonas aeruginosa” (J Med Chem, 2023)
